From PubChem BioAssay AID1919008 (Molecular Pharmacology Branch, DTP, NCI, 2023)

Test system: DMS-114 complex spheroids with HUVEC/MSC, growth % test/control
Assay: Anticancer human tumor DMS-114 cell line growth inhibition [AhR];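 further: spheroids exposed to agents for 7 days before readout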;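 on viability, T/C: 100% = DMSO vehicle control wells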
Settings: for IC50: curve of first compound; for viability, T/C: stronger effect = lower value
Method in brief: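 Complex tumor spheroids co-cultured with HUVEC and human MSC stroma; AhR antagonists tested in combination with standard-of-care and investigational agents. Top concentration at or near clinical Cmax (else 10 microM), half-log dilutions; growth expressed as percent test/control.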

[1] = second compound 0.1 µM, first compound 0.0316 µM
[2] = second compound 0.1 µM, first compound 0.1 µM
[3] = second compound 0.316 µM, first compound 0.0316 µM
[4] = second compound 0.316 µM, first compound 0.1 µM
[5] = second compound 1 µM, first compound 0.0316 µM
[6] = second compound 1 µM, first compound 0.1 µM
[7] = second compound 3.16 µM, first compound 0.0316 µM
[8] = second compound 3.16 µM, first compound 0.1 µM
[9] = second compound 10 µM, first compound 0.0316 µM
[10] = second compound 10 µM, first compound 0.1 µM
[11] = second compound 0.1 µM, first compound 0.316 µM
[12] = second compound 0.1 µM, first compound 1 µM
[13] = second compound 0.1 µM, first compound 3.16 µM
[14] = second compound 0.1 µM, first compound 10 µM
[15] = second compound 0.316 µM, first compound 0.316 µM
[16] = second compound 0.316 µM, first compound 1 µM
[17] = second compound 0.316 µM, first compound 3.16 µM
[18] = second compound 0.316 µM, first compound 10 µM
[19] = second compound 1 µM, first compound 0.316 µM
[20] = second compound 1 µM, first compound 1 µM
[21] = second compound 1 µM, first compound 3.16 µM
[22] = second compound 1 µM, first compound 10 µM
[23] = second compound 3.16 µM, first compound 0.316 µM
[24] = second compound 3.16 µM, first compound 1 µM
[25] = second compound 3.16 µM, first compound 3.16 µM
[26] = second compound 3.16 µM, first compound 10 µM
[27] = second compound 10 µM, first compound 0.316 µM
[28] = second compound 10 µM, first compound 1 µM
[29] = second compound 10 µM, first compound 3.16 µM
[30] = second compound 10 µM, first compound 10 µM

With CC[C@@]1(O)C(=O)OCc2c1cc1n(c2=O)Cc2cc3c(CN(C)C)c(O)ccc3nc2-1 + Cc1cncc(-c2nc(NCCc3c[nH]c4ccccc34)c3ncn(C(C)C)c3n2)c1 the IC50 (second compound 0.1 µM) was 23.6 nM, the IC50 (second compound 0.316 µM) was 23.2 nM and the IC50 (second compound 1 µM) was 25.9 nM. For the same compound, the IC50 (second compound 3.16 µM) was 21.9 nM, the IC50 (second compound 10 µM) was less than 0.316 nM and the viability, T/C (second compound 0.1 µM, first compound 0.000316 µM) was 93.4%. The viability, T/C (second compound 0.1 µM, first compound 0.001 µM) was 99.2%, the viability, T/C (second compound 0.1 µM, first compound 0.00316 µM) was 85.8% and the viability, T/C (second compound 0.1 µM, first compound 0.01 µM) was 75.6%. For the same compound, the viability, T/C [1] was 41.1%, the viability, T/C [2] was 16.7% and the viability, T/C (second compound 0.316 µM, first compound 0.000316 µM) was 93.4%. For the same compound, the viability, T/C (second compound 0.316 µM, first compound 0.001 µM) was 101%, the viability, T/C (second compound 0.316 µM, first compound 0.00316 µM) was 83.8% and the viability, T/C (second compound 0.316 µM, first compound 0.01 µM) was 83.2%. For the same compound, the viability, T/C [3] was 37.8%, the viability, T/C [4] was 17% and the viability, T/C (second compound 1 µM, first compound 0.000316 µM) was 97.3%. The viability, T/C (second compound 1 µM, first compound 0.001 µM) was 112%, the viability, T/C (second compound 1 µM, first compound 0.00316 µM) was 94.5% and the viability, T/C (second compound 1 µM, first compound 0.01 µM) was 86%. For the same compound, the viability, T/C [5] was 42.1%, the viability, T/C [6] was 19.5% and the viability, T/C (second compound 3.16 µM, first compound 0.000316 µM) was 99.7%. It also gave a viability, T/C (second compound 3.16 µM, first compound 0.001 µM) of 94%, a viability, T/C (second compound 3.16 µM, first compound 0.00316 µM) of 96.1% and a viability, T/C (second compound 3.16 µM, first compound 0.01 µM) of 71.9%. The viability, T/C [7] was 39.8%, the viability, T/C [8] was 17.8% and the viability, T/C (second compound 10 µM, first compound 0.000316 µM) was 40.1%. For the same compound, the viability, T/C (second compound 10 µM, first compound 0.001 µM) was 43.7%, the viability, T/C (second compound 10 µM, first compound 0.00316 µM) was 37.1% and the viability, T/C (second compound 10 µM, first compound 0.01 µM) was 27.2%. The viability, T/C [9] was 16.7% and the viability, T/C [10] was 9.82%.
Work on CCc1c2c(nc3ccc(O)cc13)-c1cc3c(c(=O)n1C2)COC(=O)[C@]3(O)CC + Cc1cncc(-c2nc(NCCc3c[nH]c4ccccc34)c3ncn(C(C)C)c3n2)c1 yielded an IC50 (second compound 0.1 µM) of 2.07 nM, an IC50 (second compound 0.316 µM) of 2.21 nM and an IC50 (second compound 1 µM) of 2.02 nM. It also gave an IC50 (second compound 3.16 µM) of 1.58 nM, an IC50 (second compound 10 µM) of less than 0.949 nM and a viability, T/C (second compound 0.1 µM, first compound 0.000949 µM) of 67.4%. For the same compound, the viability, T/C (second compound 0.1 µM, first compound 0.003 µM) was 41.6%, the viability, T/C (second compound 0.1 µM, first compound 0.00949 µM) was 21.9% and the viability, T/C (second compound 0.1 µM, first compound 0.03 µM) was 13.8%. For the same compound, the viability, T/C (second compound 0.1 µM, first compound 0.0949 µM) was 12.6%, the viability, T/C (second compound 0.1 µM, first compound 0.3 µM) was 12.5% and the viability, T/C (second compound 0.316 µM, first compound 0.000949 µM) was 69%. The viability, T/C (second compound 0.316 µM, first compound 0.003 µM) was 43.1%, the viability, T/C (second compound 0.316 µM, first compound 0.00949 µM) was 19.9% and the viability, T/C (second compound 0.316 µM, first compound 0.03 µM) was 14.5%. The viability, T/C (second compound 0.316 µM, first compound 0.0949 µM) was 15.2%, the viability, T/C (second compound 0.316 µM, first compound 0.3 µM) was 12.2% and the viability, T/C (second compound 1 µM, first compound 0.000949 µM) was 62.5%. It also gave a viability, T/C (second compound 1 µM, first compound 0.003 µM) of 43.5%, a viability, T/C (second compound 1 µM, first compound 0.00949 µM) of 20.7% and a viability, T/C (second compound 1 µM, first compound 0.03 µM) of 15.5%. It also gave a viability, T/C (second compound 1 µM, first compound 0.0949 µM) of 9.97%, a viability, T/C (second compound 1 µM, first compound 0.3 µM) of 14.7% and a viability, T/C (second compound 3.16 µM, first compound 0.000949 µM) of 62.9%. The viability, T/C (second compound 3.16 µM, first compound 0.003 µM) was 33.7%, the viability, T/C (second compound 3.16 µM, first compound 0.00949 µM) was 15% and the viability, T/C (second compound 3.16 µM, first compound 0.03 µM) was 13.1%. For the same compound, the viability, T/C (second compound 3.16 µM, first compound 0.0949 µM) was 13%, the viability, T/C (second compound 3.16 µM, first compound 0.3 µM) was 12.4% and the viability, T/C (second compound 10 µM, first compound 0.000949 µM) was 22.1%. It also gave a viability, T/C (second compound 10 µM, first compound 0.003 µM) of 17.4%, a viability, T/C (second compound 10 µM, first compound 0.00949 µM) of 9.92% and a viability, T/C (second compound 10 µM, first compound 0.03 µM) of 8.3%. The viability, T/C (second compound 10 µM, first compound 0.0949 µM) was 9% and the viability, T/C (second compound 10 µM, first compound 0.3 µM) was 6.26%.
In the case of Nc1ccccc1NC(=O)c1ccc(CNC(=O)OCc2cccnc2)cc1 + Cc1cncc(-c2nc(NCCc3c[nH]c4ccccc34)c3ncn(C(C)C)c3n2)c1, the IC50 (second compound 0.1 µM) is reported as 592 nM, the IC50 (second compound 0.316 µM) is reported as 574 nM and the IC50 (second compound 1 µM) is reported as 610 nM. It also gave an IC50 (second compound 3.16 µM) of 348 nM, an IC50 (second compound 10 µM) of less than 31.6 nM and a viability, T/C [1] of 97.9%. For the same compound, the viability, T/C [2] was 87.5%, the viability, T/C [11] was 63.4% and the viability, T/C [12] was 39.5%. For the same compound, the viability, T/C [13] was 16.3%, the viability, T/C [14] was 9.46% and the viability, T/C [3] was 89.1%. It also gave a viability, T/C [4] of 82.1%, a viability, T/C [15] of 61.4% and a viability, T/C [16] of 39.2%. It also gave a viability, T/C [17] of 17.5%, a viability, T/C [18] of 8.03% and a viability, T/C [5] of 85.8%. For the same compound, the viability, T/C [6] was 88.4%, the viability, T/C [19] was 64.2% and the viability, T/C [20] was 38.1%. For the same compound, the viability, T/C [21] was 16.9%, the viability, T/C [22] was 8.49% and the viability, T/C [7] was 89.6%. The viability, T/C [8] was 68.2%, the viability, T/C [23] was 57% and the viability, T/C [24] was 28.2%. It also gave a viability, T/C [25] of 12.7%, a viability, T/C [26] of 8.11% and a viability, T/C [9] of 32%. For the same compound, the viability, T/C [10] was 34.8%, the viability, T/C [27] was 26.3% and the viability, T/C [28] was 10.3%. The viability, T/C [29] was 3.46% and the viability, T/C [30] was 3.1%.
Compound Nc1ccn(C2OC(CO)C(O)C2(F)F)c(=O)n1 (stereo not given) + Cc1cncc(-c2nc(NCCc3c[nH]c4ccccc34)c3ncn(C(C)C)c3n2)c1 has an IC50 (second compound 0.1 µM) of less than 31.6 nM, an IC50 (second compound 0.316 µM) of less than 31.6 nM and an IC50 (second compound 1 µM) of less than 31.6 nM. The IC50 (second compound 3.16 µM) was less than 31.6 nM, the IC50 (second compound 10 µM) was less than 31.6 nM and the viability, T/C [1] was 8.56%. For the same compound, the viability, T/C [2] was 9.8%, the viability, T/C [11] was 9.67% and the viability, T/C [12] was 7.95%. It also gave a viability, T/C [13] of 10.1%, a viability, T/C [14] of 8.44% and a viability, T/C [3] of 8.17%. It also gave a viability, T/C [4] of 8.73%, a viability, T/C [15] of 9.32% and a viability, T/C [16] of 9.26%. It also gave a viability, T/C [17] of 8.71%, a viability, T/C [18] of 9.3% and a viability, T/C [5] of 9.4%. For the same compound, the viability, T/C [6] was 10.1%, the viability, T/C [19] was 8.34% and the viability, T/C [20] was 9.34%. It also gave a viability, T/C [21] of 8.86%, a viability, T/C [22] of 9.03% and a viability, T/C [7] of 8.74%. The viability, T/C [8] was 10.6%, the viability, T/C [23] was 11.1% and the viability, T/C [24] was 8.92%. It also gave a viability, T/C [25] of 9.63%, a viability, T/C [26] of 8.89% and a viability, T/C [9] of 9.18%. For the same compound, the viability, T/C [10] was 7.73%, the viability, T/C [27] was 8.82% and the viability, T/C [28] was 7.58%. The viability, T/C [29] was 8.49% and the viability, T/C [30] was 9.08%.
Work on O=C(c1cc(Cc2n[nH]c(=O)c3ccccc23)ccc1F)N1CCN(C(=O)C2CC2)CC1 + Cc1cncc(-c2nc(NCCc3c[nH]c4ccccc34)c3ncn(C(C)C)c3n2)c1 yielded an IC50 (second compound 0.1 µM) of 9120 nM, an IC50 (second compound 0.316 µM) of 9820 nM and an IC50 (second compound 1 µM) greater than 10000 nM. For the same compound, the IC50 (second compound 3.16 µM) was greater than 10000 nM, the IC50 (second compound 10 µM) was less than 31.6 nM and the viability, T/C [1] was 92.1%. It also gave a viability, T/C [2] of 102%, a viability, T/C [11] of 105% and a viability, T/C [12] of 98.1%. It also gave a viability, T/C [13] of 91.4%, a viability, T/C [14] of 46.4% and a viability, T/C [3] of 108%. The viability, T/C [4] was 96%, the viability, T/C [15] was 102% and the viability, T/C [16] was 102%. It also gave a viability, T/C [17] of 89.4%, a viability, T/C [18] of 49.1% and a viability, T/C [5] of 96.7%. The viability, T/C [6] was 94.4%, the viability, T/C [19] was 76.1% and the viability, T/C [20] was 95.2%. The viability, T/C [21] was 83.7%, the viability, T/C [22] was 58.3% and the viability, T/C [7] was 89.9%. For the same compound, the viability, T/C [8] was 92.2%, the viability, T/C [23] was 77.9% and the viability, T/C [24] was 85%. The viability, T/C [25] was 73.9%, the viability, T/C [26] was 50.4% and the viability, T/C [9] was 31.8%. For the same compound, the viability, T/C [10] was 46.6%, the viability, T/C [27] was 35.3% and the viability, T/C [28] was 37%. It also gave a viability, T/C [29] of 27.8% and a viability, T/C [30] of 22.1%.
